Assay results from patent publication US6849612B2, “Oligonucleotide modulation of cell adhesion” (ISIS Pharmaceuticals, Inc., priority 1993, dated 2005).
Strand notation (5' to 3'): a small letter for the sugar, then the base; units joined by * are phosphorothioate-linked, units joined directly phosphodiester-linked; [ ] holds rarer units or linkages, { } end groups; capitals alone tell only the bases. d = 2'-deoxy (DNA)

What was measured:
[1] = system: ICAM-1 mRNA; assay: Northern blot of ICAM-1 mRNA in C8161 cells; type: cell-based, human; conditions: Northern blot analysis
Procedure: ICAM-1 expression on the cell surface was measured by ELISA. Cells were treated with increasing concentrations of antisense oligonucleotides in the presence of 15 μg/ml Lipofectin for 4 hours at 37° C. ICAM-1 expression was induced by incubation with 5 ng/ml TNF-α for 16 hours. Cells were washed 3× in DPBS and fixed for 20 minutes in 2% formaldehyde. Cells were washed in DPBS, blocked with 2% BSA for 1 hour at 37° C. and incubated with ICAM-1 monoclonal antibody 84H10 (AMAC, Inc., Westbrook, Me.). Detection of bound antibody was determined by incubation with a biotinylated goat anti-mouse IgG followed by incubation with […] streptavidin and developed with chlorophenol red-β-D-galactopyranoside and quantified by absorbance at 575 nm. ICAM-1 mRNA levels were measured by Northern blot analysis.

[2] = system: ICAM-1; assay: ELISA screening for ICAM-1 expression in interleukin-1β-stimulated cells (HUVEC and A549); type: cell-based, human; conditions: for inhibition of ICAM-1 expression, relative activity in words: interleukin-1β-stimulated cells, two cell lines (HUVEC, A549); for inhibition of ICAM-1 expression after premixing with respective sense strand: premixed/prehybridized at equal molar concentrations with sense strand (ISIS 1575 or ISIS 2115)
[3] = system: adherence of HL-60 cells to human umbilical vein endothelial cells; assay: Cell adherence assay: DMSO differentiated HL-60 cells to TNF treated HUVEC; type: cell-based
Procedure: Target cells are grown as a monolayer in a multiwell plate, treated with oligonucleotide followed by cytokine. The adhering cells are then added to the monolayer cells and incubated for 30 to 60 minutes at 37° C. and washed to remove nonadhering cells. Cells adhering to the monolayer may be determined either by directly counting the adhering cells or prelabeling the cells with a radioisotope such as ^51Cr and quantitating the radioactivity associated with the monolayer as described. Dustin and Springer, J. Cell Biol. 1988, 107, 321-331. Antisense oligonucleotides may target either ICAM-1, VCAM-1 or ELAM-1 in the assay.
An example of the effects of antisense oligonucleotides targeting ICAM-1 mRNA on the adherence of DMSO differentiated HL-60 cells to tumor necrosis factor treated human umbilical vein endothelial cells is shown in FIG. 7. Human umbilical vein endothelial cells were grown to 80% confluence in 12 well plates. The cells were treated with 2 μM oligonucleotide diluted in Opti-MEM containing 8 μM DOTMA for 4 hours at 37° C. The medium was removed and replaced with fresh endothelial cell growth medium (EGM-UV) containing 2 μM of the indicated oligonucleotide and incubated 4 hours at 37° C. Tumor necrosis factor, 1 ng/ml, was added to cells as indicated and cells incubated for an additional 19 hours. The cells were washed once with EGM-UV and 1.6×10^6 HL-60 cells differentiated for 4 days with 1.3% DMSO added. The cells were allowed to attach for 1 hour at 37° C. and gently washed 4 times with Dulbecco's phosphate-buffered saline (D-PBS) warmed to 37° C. Adherent cells were detached from the monolayer by addition of 0.25 ml of cold (4EC) phosphate-buffered saline containing 5 mM EDTA and incubated on ice for 5 minutes. The number of cells removed by treatment with EDTA was determined by counting with a hemocytometer. Endothelial cells detached from the monolayer by EDTA treatment could easily be distinguished from HL-60 cells by morphological differences. In the absence of tumor necrosis factor, 3% of the HL-60 cells bound to the endothelial cells. Treatment of the endothelial cell monolayer with 1 ng/ml tumor necrosis factor increased the number of adhering cells to 59% of total cells added (FIG. 7).
Human umbilical vein endothelial (HUVEC) cells were grown and treated with oligonucleotides as in Example 4. Cells were treated with either ISIS 1939, ISIS 1940, or the control oligonucleotide ISIS 1821 for 4 hours, then stimulated with TNF-α for 20 hours. Basal HUVEC minimally bound HL-60 cells, while TNF-stimulated HUVEC bound 19% of the total cells added. Pretreatment of the HUVEC monolayer with 0.3 ìM ISIS 1939 reduced the adherence of HL-60 cells to basal levels, as shown in FIG. 11.

Row | Substance | ICAM-1 mRNA levels [1] | inhibition of ICAM-1 expression, relative activity in words [2] | inhibition of ICAM-1 expression after premixing with respective sense strand [2] | HL-60 cells adhering, % of total cells added ([3]; 2 μM oligonucleotide, HUVEC treated with 1 ng/ml tumor necrosis factor, control 59%) [%] | number of HL-60 cells adhering to the monolayer ([3]; 2 μM oligonucleotide, absence of tumor necrosis factor treatment) | adherence of HL-60 cells ([3]; 0.3 μM oligonucleotide, TNF-α stimulated HUVEC (control bound 19%))
1 | ISIS 1570: phosphorothioate, human ICAM-1 AUG Codon (64-81), SEQ ID NO 1, TGGGAGCCATAGCGAGGC (antisense dT*dG*dG*dG*dA*dG*dC*dC*dA*dT*dA*dG*dC*dG*dA*dG*dG*dC) | decreased ICAM-1 mRNA levels only slightly | most active | blocked the effects of ISIS 1570 | 17 | did not change the number of cells adhering | –
2 | ISIS 1939: P=S, human ICAM-1 3′-Untranslated (1952-1971), SEQ ID NO 15, CCCCCACCACTTCCCCTCTC (antisense dC*dC*dC*dC*dC*dA*dC*dC*dA*dC*dT*dT*dC*dC*dC*dC*dT*dC*dT*dC) | markedly reduced | most active | completely blocked | – | – | basal levels
